“And” between values parts separate entries of the source, which are not always exact repeats. Equal values may be shown once. Inconclusive results and toxic doses are left out. No stated cut-off is given here; in the data, active means T/C of 150% or more; inactive means T/C below 125%.
Test system: L1210 leukemia ip in BDF1 mice, survival T/C
Test: NCI In Vivo Anticancer Drug Screen. Data for tumor model L1210 Leukemia (intraperitoneal) in B6D2F1 (BDF1) mice
Settings: endpoint: mean survival time, higher = longer survival
Method in brief: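 In this screen, tumor-bearing mice given compound are compared to those given vehicle, and their survival values are reported as a treated-to-control quotient.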

[1] = dose: 100.0 mg/kg/injection, schedule: Q04DX003 (ip), vehicle: saline with Tween-80
[2] = dose: 200.0 mg/kg/injection, schedule: Q04DX003 (ip), vehicle: saline with Tween-80
[3] = dose: 400.0 mg/kg/injection, schedule: Q04DX003 (ip), vehicle: saline with Tween-80
[4] = dose: 100.0 mg/kg/injection, schedule: Q01DX001 (ip), vehicle: saline
[5] = dose: 200.0 mg/kg/injection, schedule: Q01DX001 (ip), vehicle: saline
[6] = dose: 25.0 mg/kg/injection, schedule: Q01DX009 (ip), vehicle: saline
[7] = dose: 100.0 mg/kg/injection, schedule: Q01DX009 (ip), vehicle: saline with Tween-80
[8] = dose: 100.0 mg/kg/injection, schedule: Q04DX002 (ip), vehicle: Klucel (hydroxypropylcellulose) (HPC)
[9] = dose: 200.0 mg/kg/injection, schedule: Q01DX009 (ip), vehicle: saline with Tween-80
[10] = dose: 200.0 mg/kg/injection, schedule: Q04DX002 (ip), vehicle: Klucel (hydroxypropylcellulose) (HPC)
[11] = dose: 100.0 mg/kg/injection, schedule: Q04DX003 (ip), vehicle: saline
[12] = dose: 200.0 mg/kg/injection, schedule: Q04DX003 (ip), vehicle: saline
[13] = dose: 400.0 mg/kg/injection, schedule: Q01DX001 (ip), vehicle: saline
[14] = dose: 400.0 mg/kg/injection, schedule: Q04DX003 (ip), vehicle: saline

Measured: T/C

CCC1CCCCN1 (stereo not given)
inactive: dose: 10.0 mg/kg/injection, schedule: Q01DX001 (ip), vehicle: saline 105 % of control | dose: 10.0 mg/kg/injection, schedule: Q01DX009 (ip), vehicle: saline 108 % of control and 111 % of control | dose: 10.0 mg/kg/injection, schedule: Q04DX002 (ip), vehicle: saline 95 % of control and 106 % of control | dose: 10.0 mg/kg/injection, schedule: Q04DX003 (ip), vehicle: saline 103 % of control | dose: 20.0 mg/kg/injection, schedule: Q01DX001 (ip), vehicle: saline 120 % of control | dose: 20.0 mg/kg/injection, schedule: Q01DX009 (ip), vehicle: saline 104 % of control | dose: 20.0 mg/kg/injection, schedule: Q04DX002 (ip), vehicle: saline 103 % of control | dose: 20.0 mg/kg/injection, schedule: Q04DX003 (ip), vehicle: saline 101 % of control | dose: 40.0 mg/kg/injection, schedule: Q01DX001 (ip), vehicle: saline 103 % of control | dose: 40.0 mg/kg/injection, schedule: Q01DX009 (ip), vehicle: saline 104 % of control | dose: 40.0 mg/kg/injection, schedule: Q04DX002 (ip), vehicle: saline 94 % of control and 98 % of control | dose: 40.0 mg/kg/injection, schedule: Q04DX003 (ip), vehicle: saline 97 % of control

NC(=S)NC(N)=S
inactive: [1] 94 % of control | [2] 96 % of control | [3] 96 % of control

O=C1c2ccccc2C(=O)c2c1c(O)c1ccccc1c2O
inactive: dose: 100.0 mg/kg/injection, schedule: Q#A X Z (im), vehicle: other 96 % of control | dose: 100.0 mg/kg/injection, schedule: Q#A X Z (ip), vehicle: other 107 % of control | dose: 100.0 mg/kg/injection, schedule: Q#A X Z (sc), vehicle: other 100 % of control | dose: 200.0 mg/kg/injection, schedule: Q#A X Z (im), vehicle: other 97 % of control | dose: 200.0 mg/kg/injection, schedule: Q#A X Z (ip), vehicle: other 96 % of control | dose: 200.0 mg/kg/injection, schedule: Q#A X Z (sc), vehicle: other 107 % of control | dose: 300.0 mg/kg/injection, schedule: Q#A X Z (im), vehicle: other 94 % of control | dose: 300.0 mg/kg/injection, schedule: Q#A X Z (ip), vehicle: other 92 % of control | dose: 300.0 mg/kg/injection, schedule: Q#A X Z (sc), vehicle: other 97 % of control | dose: 400.0 mg/kg/injection, schedule: Q#A X Z (im), vehicle: other 94 % of control | dose: 400.0 mg/kg/injection, schedule: Q#A X Z (ip), vehicle: other 92 % of control | dose: 400.0 mg/kg/injection, schedule: Q#A X Z (sc), vehicle: other 96 % of control | dose: 500.0 mg/kg/injection, schedule: Q#A X Z (oral), vehicle: other 96 % of control | dose: 750.0 mg/kg/injection, schedule: Q#A X Z (oral), vehicle: other 100 % of control

CC(=O)C1=C(O)C2C3c4c[nH]c5cccc(c45)CC3C(C)(C)N2C1=O (stereo not given)
inactive: dose: 0.25 mg/kg/injection, schedule: Q01DX001 (ip), vehicle: saline 101 % of control | dose: 0.5 mg/kg/injection, schedule: Q01DX001 (ip), vehicle: saline 103 % of control | dose: 1.0 mg/kg/injection, schedule: Q01DX001 (ip), vehicle: saline 101 % of control | dose: 2.0 mg/kg/injection, schedule: Q01DX001 (ip), vehicle: saline 105 % of control

CC12CCCC(C(C#N)C(N)=O)(C1)NC(=O)C2C#N (stereo not given)
inactive: [4] 107 % of control | [5] 96 % of control

COc1cc(C(=O)O)cc(OC)c1OC
inactive: dose: 100.0 mg/kg/injection, schedule: Q04DX002 (ip), vehicle: other 103 % of control | dose: 200.0 mg/kg/injection, schedule: Q04DX002 (ip), vehicle: other 98 % of control | dose: 400.0 mg/kg/injection, schedule: Q04DX002 (ip), vehicle: other 98 % of control

O=S1CCCCO1 (stereo not given)
inactive: dose: 37.5 mg/kg/injection, schedule: Q01DX009 (ip), vehicle: saline 96 % of control | dose: 75.0 mg/kg/injection, schedule: Q01DX001 (ip), vehicle: saline 101 % of control | dose: 75.0 mg/kg/injection, schedule: Q01DX009 (ip), vehicle: saline 91 % of control | dose: 150.0 mg/kg/injection, schedule: Q01DX001 (ip), vehicle: saline 101 % of control | dose: 150.0 mg/kg/injection, schedule: Q01DX009 (ip), vehicle: saline 96 % of control | dose: 300.0 mg/kg/injection, schedule: Q01DX001 (ip), vehicle: saline 104 % of control

NNc1nnnc2ccccc12
inactive: dose: 20.0 mg/kg/injection, schedule: Q01DX001 (ip), vehicle: Klucel (hydroxypropylcellulose) (HPC) 108 % of control

O=C1C2C3C=CC(C3)C2C(=O)N1c1ccccc1 (stereo not given)
inactive: [1] 96 % of control | [2] 101 % of control | [3] 107 % of control

COc1ccc(C2(O)c3ccccc3-c3ccccc32)cc1
inactive: [6] 98 % of control | dose: 50.0 mg/kg/injection, schedule: Q01DX009 (ip), vehicle: saline 93 % of control | dose: 100.0 mg/kg/injection, schedule: Q01DX009 (ip), vehicle: saline 98 % of control | dose: 200.0 mg/kg/injection, schedule: Q01DX009 (ip), vehicle: saline 101 % of control | dose: 300.0 mg/kg/injection, schedule: Q01DX009 (ip), vehicle: saline 96 % of control | dose: 400.0 mg/kg/injection, schedule: Q01DX009 (ip), vehicle: saline 95 % of control

O=C1c2ccccc2C(=O)N1CCOCCOCCOCCN1C(=O)c2ccccc2C1=O
inactive: dose: 50.0 mg/kg/injection, schedule: Q01DX009 (ip), vehicle: saline with Tween-80 97 % of control | [7] 91 % of control | [8] 102 % of control | [9] 94 % of control | [10] 94 % of control | dose: 400.0 mg/kg/injection, schedule: Q04DX002 (ip), vehicle: Klucel (hydroxypropylcellulose) (HPC) 102 % of control

Cc1cc(C)cc(CCc2cc(C)cc(C)c2)c1
inactive: dose: 100.0 mg/kg/injection, schedule: Q01DX001 (ip), vehicle: saline with Tween-80 95 % of control | [7] 88 % of control | dose: 200.0 mg/kg/injection, schedule: Q01DX001 (ip), vehicle: saline with Tween-80 94 % of control | [9] 95 % of control | dose: 400.0 mg/kg/injection, schedule: Q01DX001 (ip), vehicle: saline with Tween-80 89 % of control | dose: 400.0 mg/kg/injection, schedule: Q01DX009 (ip), vehicle: saline with Tween-80 95 % of control

COc1cc(N2C(N)=NC(N)=NC2(C)C)cc(OC)c1OC
inactive: dose: 6.25 mg/kg/injection, schedule: Q01DX009 (ip), vehicle: saline 98 % of control | dose: 12.5 mg/kg/injection, schedule: Q01DX009 (ip), vehicle: saline 105 % of control | [6] 107 % of control

COC(=O)c1ccc(N(C)CC/C(CN)=N/NC(N)=O)cc1
inactive: dose: 100.0 mg/kg/injection, schedule: Q01DX001 (ip), vehicle: carboxymethylcellulose (CMC) 96 % of control | dose: 200.0 mg/kg/injection, schedule: Q01DX001 (ip), vehicle: carboxymethylcellulose (CMC) 96 % of control | dose: 400.0 mg/kg/injection, schedule: Q01DX001 (ip), vehicle: carboxymethylcellulose (CMC) 102 % of control

CCOC(=O)C1=C(C)CC(=O)NC1=O
inactive: [4] 115 % of control | [11] 108 % of control | [5] 114 % of control | [12] 90 % of control | [13] 111 % of control | [14] 90 % of control

O=c1[nH]c(=O)[nH]c(=O)[nH]1
inactive: dose: 100.0 mg/kg/injection, schedule: Q01DX009 (ip), vehicle: Klucel (hydroxypropylcellulose) (HPC) 100 % of control | [11] 90 % of control | dose: 200.0 mg/kg/injection, schedule: Q01DX009 (ip), vehicle: Klucel (hydroxypropylcellulose) (HPC) 91 % of control | [12] 90 % of control | dose: 400.0 mg/kg/injection, schedule: Q01DX009 (ip), vehicle: Klucel (hydroxypropylcellulose) (HPC) 101 % of control | [14] 98 % of control

CCCCCCCCCCCCCCCC(=O)N(CCCCN(CCCN(C)C)C(=O)CCCCCCCCCCCCCCC)CCCN(C)C
inactive: [1] 91 % of control

Cc1nc(Cl)ncc1N
inactive: [4] 100 % of control | [5] 98 % of control | [13] 98 % of control

CCC1(CC)C(=O)NC(=O)N(C)C1=O
inactive: [8] 112 % of control | [10] 88 % of control

Reference: PubChem BioAssay AID248 (DTP/NCI, 2004)
